Here are results for one molecule from patent publication US20190071416A1, “COMPOUNDS FOR TREATMENT OF CANCER AND EPIGENETICS” (Agency For Science, Technology and Research, priority 2015, published 2019).

By GI50 is commonly meant the concentration at which growth is held to half of that of the control. Usually IC50 stands for the midpoint of a concentration-inhibition curve. By inhibition is commonly meant the percentage by which the read-out fell short of the control.

Where two headings read alike, the source gives them in different places.

One assay relates to HCT-116. Put plainly: Cell proliferation assay (CellTiter-Glo), HCT-116. To be noted: Homo sapiens, HCT-116, 72 h; 3 days. In kind it is cell-based. The procedure:
(§1) The cell proliferation assays were tested in several cell lines, including HepG2,HCT116, A549, HPAF-II, CFPAC-1,HuH7, SNU398,Hep3B, and HEK293. All cell lines are from ATCC. HepG2, HPAF-II and HEK293 are cultured in Eagle's MEM media supplemented with fetal bovine serum. HCT116 is cultured in McCoy media supplemented with fetal bovine serum. Huh-7 is cultured in DMEM low glucose (1000 mg/L glucose) with 10% FBS, 1% L-Glutamate and 1% Penicillin/Streptomycin. SNU398 is cultured in RPMI with 10% FBS with 1% L-Glutamate and 1% Penicillin/Streptomycin. Hep3B is cultured in Eagle's MEM with 10% FBS, 1% L-Glutamate and 1% Penicillin/Streptomycin. A549 is cultured in RPMI media supplemented with fetal bovine serum while CFPAC-1 is cultured in IMDM media supplemented with fetal bovine serum. All media and serum are purchased from Gibco (Lifetech). All cells were grown in a temperature controlled incubator at 37° C. and 5% CO2.
(§2) Cell proliferation assay was performed using CellTiter-Glo Luminescent Cell Viability Assay (Promega) following manufacturer's instructions. The cell-line of interest was treated with compounds that were serial diluted in its respective media. Plates were incubated for 3 days at 37° C. in 5% CO2. After 3 days, an equal volume of Cell Titer Glo reagent was added. Plates were rocked on a rotator for 2 h. 100 μL of each well were transferred to a 96-well opaque plate, and luminescence emitted was measured with the Tecan Safire II.
(In general: ATP-based viability assays read luminescence as a measure of living cells.)

The next assay addresses T1, SMYD3 (Homo sapiens, UniProt Q9H7B4).
T1 sequence (Q9H7B4 1-428): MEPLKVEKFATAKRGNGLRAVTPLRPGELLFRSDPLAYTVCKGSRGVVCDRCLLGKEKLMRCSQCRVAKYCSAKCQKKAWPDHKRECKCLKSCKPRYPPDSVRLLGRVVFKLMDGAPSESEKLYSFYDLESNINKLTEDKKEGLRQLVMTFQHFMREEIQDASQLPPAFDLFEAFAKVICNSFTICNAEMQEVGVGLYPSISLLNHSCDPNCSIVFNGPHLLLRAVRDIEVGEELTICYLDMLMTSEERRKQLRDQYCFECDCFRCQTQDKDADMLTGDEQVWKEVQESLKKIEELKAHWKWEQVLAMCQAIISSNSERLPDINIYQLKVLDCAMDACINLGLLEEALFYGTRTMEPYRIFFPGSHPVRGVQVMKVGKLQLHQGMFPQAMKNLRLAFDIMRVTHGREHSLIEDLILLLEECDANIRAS
The experiment in a line: SMYD3 biochemical assay (MTase-Glo, MAP3K2 peptide substrate). Put shortly:
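Luminescent readout of SAH production (coupled SAH→ATP conversion, MTase-Glo) after SMYD3 reacted 30 min at room temperature with 1.0 µM SAM and 10 µM MAP3K2 peptide, both final. Non-linear regression gave IC50 values.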

The test system of assay [1] is MAP3K2 methylation (me2/me3-Lys 260). The experiment in a line: SMYD3 mediated methylation of MAP3K2 in HEK293 cells (Western blot). The assay is classed as cell-based, Human. To be noted: 25 μM. The procedure: The cells were seeded in 6 well plates. After seeding for 24 h, the cells were treated with either DMSO or 25 μM compound and incubated for 24 hr. The cells were trypsinized and the lysate was extracted with RIPA buffer (Santa Cruz). The total protein concentration of lysate is quantified using the standard Bradford assay (Biorad protein assay, microplate standard assay).
Western blot analysis for detecting methylated MAP3K2 was carried out using a customized Anti-me2/me3-Lys 260 MAP3K2 at 1:500 and the total MAP3K2 was detected using Anti-MEKK2 (AB33918) using a 1:10,000 dilution.
B019 was further tested for its ability to inhibit SMYD3 in cells through its effects on cellular MAP3K2 methylation. This was performed using an antibody against the MAP3K2 (me2/me3), Anti-ME2/ME3-K260-MAP3K2 (1:500) and total MAP3K2, Anti-MEKK2 #ab33918 (1:10,000).
In general terms: Immunoblotting shows a protein as a band on a membrane.

The next assay concerns Hep G2 cells. The experiment in a line: Soft agar colony formation assay. The assay is classed as cell-based, human. The procedure: Hep G2 cells were purchased from ATCC. Hep G2 cells were maintained in Eagle's Minimum Essential Medium (Sigma, Cat No: #M0643) supplemented with 10% Fetal Bovine Serum (Hyclone, Cat No: SV30087.03), 2 mM L-glutamine, 100 units/mL penicillin and 100 μg/mL streptomycin (Life Technologies, Cat No: 10378-016). The soft agar assays were performed in concordance to the ETC approved method report for soft agar assay (ETC document number: RD0019). Briefly, 600 μL of 0.6% agar was added to 24-well plate (Corning, Cat No: 3738) to form the base layer. This is followed by the addition of 500 μL of 0.36% agar middle layer (containing 10′000Hep G2 cells). Lastly, 500 μL of fresh growth medium (containing the corresponding serially diluted compound) was added above the middle layer. The plates were incubated at 37° C. with 5% carbon dioxide in a humidified incubator for 1 to 2 weeks. 70 μL of thiazolyl blue tetrazolium bromide (5 mg/mL, Sigma Cat No: M5655) was added to each well and the plates were incubated at 37° C. for 2 h. Colonies were counted with GelCount® instrument (Oxford Optronix). The colony counts were plotted against compound concentrations using the Graphpad Prism software. In addition, the software was used to perform non-linear curve fitting and the calculation of IC50.

Another assay deals with HepG2. Put plainly: Cell proliferation assay (CellTiter-Glo), HepG2. The assay is classed as cell-based. To be noted: Homo sapiens, HepG2, 72 h; 3 days. As to the method: as §1, §2
A further assay deals with A549. Put plainly: Cell proliferation assay (CellTiter-Glo), A549. The assay is classed as cell-based. The note with it: Homo sapiens, A549, 72 h; 3 days. As to the method:
as §1, §2

For `CCCOC(=O)N1CCN(C(=O)c2ccc3c(Cl)cc(-c4ccccc4)nc3c2)C[C@H]1C` [B019, Propyl (R)-4-(4-chloro-2-phenylquinoline-7-carbonyl)-2-methylpiperazine-1-carboxylate], the values for the GI50 with HCT-116, in the assay with HepG2 and in the assay with A549 were 17.9 µM, 18.9 µM and 28.8 µM, respectively. The IC50 at SMYD3 (Table 1, MAP3K2 peptide as substrate, read-out: IC50) amounted to 59.5 nM; at SMYD3 (Table 2, read-out: Biochemical assay IC50), 59.5 nM; on SMYD3 (Table 3, MTase assay, MAP3K2 peptide substrate, read-out: IC50) it was 60 nM; in the assay on Hep G2 cells (Homo sapiens, HepG2, Hep G2, soft agar), 230 nM. For the same molecule, the “inhibition of methylation of MAP3K2 in cells” value in assay [1] was “inhibited”. Moreover, in assay [1], the “total MAP3K2 levels” value is “without changing”. This molecule also returned a maximum inhibition in the assay on Hep G2 cells (Hep G2, soft agar) of 97.2%. This molecule returned an inhibition at 10 µM with Hep G2 cells (Homo sapiens, HepG2, highest concentration tested (10 μM)) of roughly 100%.
